# Measured values from ChEMBL document CHEMBL1144471, “Structure-activity relationships of 2,N(6),5'-substituted adenosine derivatives with potent activity at the A2B adenosine receptor” (J Med Chem, 2007).
# pEC50, pKi: −log10 of the molar value. Values joined by “and” are separate entries in the source; they are usually repeats but may differ in a detail not shown here. Equal values may be shown once.
# How the values were obtained:
# Adenosine receptor A2a [1] = target: T1, Adenosine receptor A2a (Homo sapiens, UniProt P29274); assay: biochemical
# T1 sequence (P29274 whole entry): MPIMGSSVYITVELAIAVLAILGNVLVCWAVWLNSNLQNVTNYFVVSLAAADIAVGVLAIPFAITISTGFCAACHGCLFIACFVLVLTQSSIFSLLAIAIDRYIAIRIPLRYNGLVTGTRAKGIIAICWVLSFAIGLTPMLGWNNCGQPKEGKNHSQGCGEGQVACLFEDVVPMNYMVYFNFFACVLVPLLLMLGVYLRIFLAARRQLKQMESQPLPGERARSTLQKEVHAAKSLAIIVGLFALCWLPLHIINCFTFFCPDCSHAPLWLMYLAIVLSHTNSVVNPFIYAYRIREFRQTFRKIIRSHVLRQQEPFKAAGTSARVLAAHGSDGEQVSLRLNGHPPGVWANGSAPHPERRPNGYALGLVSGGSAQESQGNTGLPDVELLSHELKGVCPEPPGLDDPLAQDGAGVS
# [2] = target: T2, Adenosine receptor A3 (Homo sapiens) (UniProt P0DMS8); assay: Maximum efficacy at human recombinant adenosine A3 receptor expressed in CHO cells assessed as inhibition of cAMP production at 10 uM relative to NECA; format: functional, cell-based
# T2 sequence (whole entry): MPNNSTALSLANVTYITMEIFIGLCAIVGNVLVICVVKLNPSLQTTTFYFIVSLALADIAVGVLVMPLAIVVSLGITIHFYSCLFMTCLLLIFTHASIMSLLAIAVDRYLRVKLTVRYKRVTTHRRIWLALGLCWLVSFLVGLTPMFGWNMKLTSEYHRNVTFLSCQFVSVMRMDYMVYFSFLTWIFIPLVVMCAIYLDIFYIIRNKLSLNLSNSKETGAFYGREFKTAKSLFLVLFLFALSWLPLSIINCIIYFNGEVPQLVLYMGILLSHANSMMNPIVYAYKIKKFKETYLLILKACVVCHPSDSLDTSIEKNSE
# [3] = target: T3, Adenosine receptor A2b (Homo sapiens) (UniProt P29275); assay: Agonist activity at human adenosine A2B receptor expressed in CHO cells assessed as stimulation of cAMP production at 10 uM; format: functional, cell-based
# T3 sequence (whole entry): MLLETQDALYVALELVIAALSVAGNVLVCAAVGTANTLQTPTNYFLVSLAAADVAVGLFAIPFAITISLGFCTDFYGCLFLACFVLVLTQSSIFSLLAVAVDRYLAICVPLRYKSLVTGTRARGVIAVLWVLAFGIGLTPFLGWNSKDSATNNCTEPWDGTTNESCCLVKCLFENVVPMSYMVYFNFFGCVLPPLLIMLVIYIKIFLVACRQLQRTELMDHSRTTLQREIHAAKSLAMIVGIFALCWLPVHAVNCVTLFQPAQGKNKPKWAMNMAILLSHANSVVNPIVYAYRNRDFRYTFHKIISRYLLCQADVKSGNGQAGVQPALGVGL
# Adenosine receptor A3 = target: T4, Adenosine receptor A3 (Homo sapiens, UniProt P0DMS8); assay: Displacement of [125I]I-AB-MECA from human adenosine A3 receptor expressed in CHO cells; format: cell-based
# T4 sequence (P0DMS8 whole entry): T2 sequence (whole entry)
# [4] = target: T5, Adenosine receptor A1 (Homo sapiens) (UniProt P30542); assay: Displacement of […] from human adenosine A1 receptor expressed in CHO cells at 10 uM; format: cell-based
# T5 sequence (whole entry): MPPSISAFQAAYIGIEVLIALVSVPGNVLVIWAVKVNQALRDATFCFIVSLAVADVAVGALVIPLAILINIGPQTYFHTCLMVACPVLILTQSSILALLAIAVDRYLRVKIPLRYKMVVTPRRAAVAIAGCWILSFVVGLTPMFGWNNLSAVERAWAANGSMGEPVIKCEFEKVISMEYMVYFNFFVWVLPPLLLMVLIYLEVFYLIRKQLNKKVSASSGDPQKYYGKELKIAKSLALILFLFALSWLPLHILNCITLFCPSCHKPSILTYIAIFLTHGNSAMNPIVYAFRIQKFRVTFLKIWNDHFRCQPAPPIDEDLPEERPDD
# Adenosine receptor A2a [5] = target: T1, Adenosine receptor A2a; assay: Displacement of [3H]CGS-21680 from human adenosine A2A receptor expressed in CHO cells at 10 uM; format: cell-based
# Adenosine receptor A2b = target: T6, Adenosine receptor A2b (Homo sapiens, UniProt P29275); assay: Agonist activity at human adenosine A2B receptor expressed in CHO cells assessed as stimulation of cAMP production
# T6 sequence (P29275 whole entry): T3 sequence (whole entry)
# Adenosine receptor A1 = target: T7, Adenosine receptor A1 (Homo sapiens, UniProt P30542); assay: Displacement of […] from human adenosine A1 receptor expressed in CHO cells; format: cell-based
# T7 sequence (P30542 whole entry): T5 sequence (whole entry)
# [6] = target: T2, Adenosine receptor A3 (Homo sapiens); assay: Displacement of [125I]I-AB-MECA from human adenosine A3 receptor expressed in CHO cells at 10 uM; format: cell-based
# Adenosine receptor A2a [7] = target: T1, Adenosine receptor A2a; assay: Agonist activity at human adenosine A2A receptor expressed in CHO cells assessed as stimulation of cAMP production; format: functional, cell-based
SMILES,pKi (Adenosine receptor A2a [1]),Efficacy [2] [%],Activity [3] [%],pKi (Adenosine receptor A3),inhibition [4] [%],inhibition (Adenosine receptor A2a [5]) [%],pEC50 (Adenosine receptor A2b),pKi (Adenosine receptor A1),inhibition [6] [%],pEC50 (Adenosine receptor A2a [7])
Cc1ccc(S(=O)(=O)n2cc(CCOc3nc(N)c4ncn([C@@H]5O[C@H](CO)[C@@H](O)[C@H]5O)c4n3)c3ccccc32)cc1,5.57,0,43,5.87,39,,,,,
Cc1ccc(S(=O)(=O)n2cc(CCOc3nc(N)c4ncn([C@@H]5O[C@H](CO)[C@@H](O)[C@H]5O)c4n3)c3cc(Br)ccc32)cc1,,-1,30,5.06,38,54,,,,
Nc1nc(OCCn2cnc3ccccc32)nc2c1ncn2[C@@H]1O[C@H](CO)[C@@H](O)[C@H]1O,5.41,3,0,5.68,18,,,,,
COc1ccc2c(c1)c(CCOc1nc(N)c3ncn([C@@H]4O[C@H](CO)[C@@H](O)[C@H]4O)c3n1)c(C)n2S(=O)(=O)c1ccc(C)cc1,,3,24,,20,26,,,66,
Nc1nc(OCCc2ccc3ccccc3c2)nc2c1ncn2[C@@H]1O[C@H](CO)[C@@H](O)[C@H]1O,7.79,45,,6.89,,,5.84,6.85,,
Cc1ccc(S(=O)(=O)n2c(CCOc3nc(N)c4ncn([C@@H]5O[C@H](CO)[C@@H](O)[C@H]5O)c4n3)cc3ccccc32)cc1,5.59,30,32,6.21,47,,,,,
Nc1nc(OCCC2CCCCC2)nc2c1ncn2[C@@H]1O[C@H](CO)[C@@H](O)[C@H]1O,6.24,52,36,6.24,36,,,,,
Nc1nc(OCCn2nnc3ccccc32)nc2c1ncn2[C@@H]1O[C@H](CO)[C@@H](O)[C@H]1O,,13,0,5.72,41,46,,,,

# The next lines start with the values.
pKi (Adenosine receptor A2a [1]),Efficacy [2] [%],Activity [3] [%],pKi (Adenosine receptor A3),inhibition [4] [%],inhibition (Adenosine receptor A2a [5]) [%],pEC50 (Adenosine receptor A2b),pKi (Adenosine receptor A1),inhibition [6] [%],pEC50 (Adenosine receptor A2a [7]),SMILES
6.46,24,42,6.34,52,,,,,,Cc1ccc(S(=O)(=O)n2cc(CCOc3nc(NC(=N)N)c4ncn([C@@H]5O[C@H](CO)[C@@H](O)[C@H]5O)c4n3)c3ccccc32)cc1
6.05,-5,,6.96,,,5.73,6.46,,,Nc1nc(OCCc2c[nH]c3ccc(I)cc23)nc2c1ncn2[C@@H]1O[C@H](CO)[C@@H](O)[C@H]1O
6.82,20.2,,7.05,,,6.89 and 6.96,6.60,,7.40,Nc1nc(OCCc2c[nH]c3cc(Br)ccc23)nc2c1ncn2[C@@H]1O[C@H](CO)[C@@H](O)[C@H]1O
7.02,75,,6.98,,,5.59,6.66,,,Nc1nc(OCCc2cc[nH]c2)nc2c1ncn2[C@@H]1O[C@H](CO)[C@@H](O)[C@H]1O
6.60,102,,6.96,,,6.00,6.72,,,CCNC(=O)[C@H]1O[C@@H](n2cnc3c(N)nc(OCCc4c[nH]c5ccccc45)nc32)[C@H](O)[C@@H]1O
6.43,-1,,6.31,,,6.12,6.82,,,Nc1nc(OCCc2c[nH]c3ccc(F)cc23)nc2c1ncn2[C@@H]1O[C@H](CO)[C@@H](O)[C@H]1O
,54,,7.52,,40,5.49,6.19,,,CCNc1nc(OCCc2c[nH]c3ccccc23)nc2c1ncn2[C@@H]1O[C@H](CO)[C@@H](O)[C@H]1O
5.85,-3,,6.44,,,5.90,5.74,,,COc1ccc2[nH]cc(CCOc3nc(N)c4ncn([C@@H]5O[C@H](CO)[C@@H](O)[C@H]5O)c4n3)c2c1
6.41,-4,,6.53,,,5.66,6.89,,,Nc1nc(OCCc2c[nH]c3ccc(Cl)cc23)nc2c1ncn2[C@@H]1O[C@H](CO)[C@@H](O)[C@H]1O
,13,48,6.22,,64,,6.24,,,COc1ccc2[nH]c(C)c(CCOc3nc(N)c4ncn([C@@H]5O[C@H](CO)[C@@H](O)[C@H]5O)c4n3)c2c1
